Experiments:
[1] = target: L-type voltage-dependent Ca2+ channel (Homo sapiens, UniProt O60840+Q01668+Q13698+Q13936); experiment: Inhibition of L-type voltage-dependent Ca2+ channel at 1 uM
[2] = Potentiation of forskolin-induced CFTR deltaF508 mutant expressed in FRT cells co-expressing halide-sensitive YFP-H148Q/I152L by fluorescence quenching assay; type: cell-based, Homo sapiens

Row | Compound | inhibition at 1 µM [1] | pEC50 for potentiation of CFTR deltaF508 (activation potency) [2]
1 | COC(=O)C1=C(C)NC(C)=C(C(=O)OC)C1c1ccc2c(c1)OCO2 | 37.2% | 5.71
2 | CCOC(=O)C1=C(C)NC(C)=C(C(=O)OCC)C1c1ccc(C(C)(C)C)cc1 | 32.1% | 5.89
3 | CC1=C(C(=O)OCc2ccccc2)C(c2ccc(O)cc2)C(C(=O)OCc2ccccc2)=C(C)N1 | 72.8% | 5.92
4 | CC1=C(C(=O)OCc2ccccc2)C(c2ccc(Cl)cc2)C(C(=O)OCc2ccccc2)=C(C)N1 | 92.9% | 5.23
5 | COCCOC(=O)C1=C(C)NC(C)=C(C(=O)OCCOC)C1c1cccc([N+](=O)[O-])c1 | 100% | 5.93
6 | CCOC(=O)C1=C(C)NC(C)=C(C(=O)OCC)C1c1ccc(OC)cc1 | 34.2% | 
7 | COC(=O)C1=C(C)N(C)C(C)=C(C(=O)OC)C1c1ccc(Cl)c([N+](=O)[O-])c1 | 35.1% | 5.47
8 | COC(=O)C1=C(C)N(C)C(C)=C(C(=O)OC)C1c1cccc(Cl)c1Cl | 42.2% | 5.23
9 | COC(=O)C1=C(C)N(C)C(C)=C(C(=O)OC)C1c1ccc(-c2ccccc2)cc1 | 23.5% | 5.63
10 | CCOC(=O)C1=C(C)NC(C)=C(C(=O)OCC)C1c1c(Cl)cccc1Cl | 100% | 6.52
11 | COC(=O)C1=C(C)N(C)C(C)=C(C(=O)OC)C1c1cccc(Cl)c1 | 40.2% | 4.89
12 | CCOC(=O)C1=C(C)NC(C)=C(C(=O)OCC)C1c1ccc(N(CC)CC)cc1 | 34.7% | 5.59
13 | COC(=O)C1=C(C)NC(C)=C(C(=O)OC)C1c1ccc(N(C)C)cc1 | 4.1% | 
14 | CC1=C(C(=O)OC(C)C)C(c2ccc(Cl)cc2)C(C(=O)OC(C)C)=C(C)N1 | 50.5% | 6.14
15 | COc1ccc(C(=O)OC2C(C(=O)OCc3ccccc3)=C(C)NC(C)=C2C(=O)OCc2ccccc2)cc1OC | 23.3% | 5.41
16 | COc1ccc(C2C(C(=O)OC(C)C)=C(C)NC(C)=C2C(=O)OC(C)C)cc1OC | 22.1% | 5.76
17 | C=CCOC(=O)C1=C(C)NC(C)=C(C(=O)OCC=C)C1c1cccc(Oc2ccccc2)c1 | 48.2% | 6.52
18 | C=CCOC(=O)C1=C(C)NC(C)=C(C(=O)OCC=C)C1c1ccc(Cl)c(Cl)c1 | 87.2% | 6.21

Row | Compound | inhibition at 1 µM [1] | pEC50 for potentiation of CFTR deltaF508 (activation potency) [2]
19 | CCOC(=O)C1=C(C)NC(C)=C(C(=O)OCC)C1c1ccc(N(C)C)cc1 | 30.4% | 6.1
20 | CCOC(=O)C1=C(C)NC(C)=C(C(=O)OCC)C1c1ccc(OC)c(OC)c1 | 100% | 6.21
21 | CCOC(=O)C1=C(C)NC(C)=C(C(=O)OC)C1c1cc(Cl)cc(Cl)c1OC (configuration not stated) | 100% | 6.62
22 | CCOC(=O)C1=C(C)NC(C)=C(C(=O)OCC)C1c1ccc(OCC)cc1 | 58.7% | 6.29
23 | COC(=O)C1=C(C)NC(C)=C(C(=O)OC)C1c1cccc(Br)c1 | 100% | 6.46
24 | COC(=O)C1=C(C)NC(C)=C(C(=O)OC)C1c1ccc(Cl)c(Cl)c1 | 100% | 5.77
25 | CCOC(=O)C1=C(C)NC(C)=C(C(=O)OCC)C1c1ccccc1Cl | 100% | 6.59
26 | CCc1ccc(C2C(C(=O)OC)=C(C)NC(C)=C2C(=O)OC)cc1 | 37.4% | 6.14
27 | CCOc1ccc(C2C(C(=O)OC)=C(C)NC(C)=C2C(=O)OC)cc1OC | 22.6% | 5.62
28 | CCOC(=O)C1=C(C)NC(C)=C(C(=O)OCC)C1c1ccc(O)c(OCC)c1 | 22.8% | 5.35
29 | COc1cc(C2C(C(=O)OCc3ccccc3)=C(C)NC(C)=C2C(=O)OCc2ccccc2)ccc1O | 44.9% | 5.28
30 | COC(=O)C1=C(C)N(C)C(C)=C(C(=O)OC)C1c1ccccc1Cl | 50.6% | 5.44
31 | COC(=O)C1=C(C)N(C)C(C)=C(C(=O)OC)C1c1ccc(Cl)c(Cl)c1 | 45.6% | 4.89
32 | COC(=O)C1=C(C)N=C(C)/C(=C(/O)OC)C1c1c(F)cccc1Cl (configuration not stated) | 100% | 6.8
33 | COC(=O)C1=C(C)N=C(C)/C(=C(/O)OC)C1c1cccc(Cl)c1 (configuration not stated) | 100% | 6.22
34 | COC(=O)C1=CNC=C(C(=O)OC)C1c1ccc(Cl)c(Cl)c1 | 17.1% | 5.7
35 | CCOC(=O)C1=C(C)NC(C)=C(C(=O)OC)C1c1cccc([N+](=O)[O-])c1 (configuration not stated) [NITRENDIPINE] | 100% | 

— ChEMBL document CHEMBL2062363, “Ligand-based design, in silico ADME-Tox filtering, synthesis and biological evaluation to discover new soluble 1,4-DHP-based CFTR activators” (Eur J Med Chem, 2012)
